Where a name gives a salt, the structure may show the parent alone.
Test system: activated partial thromboplastin time (APTT)
Test: activated partial thromboplastin time (APTT) determination
Parameters: species or system human
Conditions: Example 1, plasma, N 48
Method: Tetrahydrofuran-2,3,4,5-tetracarboxylic acid (THTCA) was from TCI, Germany. Pristine blood collection tubes, i.e. tubes as originally provided not containing or respectively not filled or coated with additive, were from KABE Labortechnik GmbH, Germany, denoted KABEVETTE (GR).
Blood was collected from the antecubital vein from volunteers who had previously given their informed consent. […] Tubes were filled with blood completely to the mark (4.9 mL), and for tubes containing anticoagulant the blood was mixed well with the respective anticoagulant by inverting the tubes 4 times immediately after blood collection. Serum samples were treated according to the protocol of the manufacturer and used for biochemical analysis. […] Potassium EDTA plasma was also used for biochemical determinations.
The analyses of metabolites, minerals, and enzymes were performed using the automated analyzers cobas 6000 C and 6000 E. Haemostasis tests and haematologic parameters were measured by STA-R (Diagnostica Stago) analyzer and LH 780 analyzer (Beckman Coulter) respectively.

Row | Compound | APTT Mean (listed as GR 15, monohydrate) | APTT Mean
1 | O=C(O)CC(O)(CC(=O)O)C(=O)O [CA, Citric acid monohydrate] | 29.94 s | –
2 | O=C(O)CC(O)(CC(=O)O)C(=O)O [citrate (BD), sodium citrate] | – | 29.71 s

— patent US10969396B2, “In vitro method, use of an agent and collection device for the inhibition of coagulation in blood” (priority 2013, dated 2021)
